Data reported in patent US12275731B2, “Azaindole inhibitors of wild-type and mutant forms of LRRK2” (DANA-FARBER CANCER INSTITUTE, INC., priority 2018, dated 2025).

Assays:
Experiment in all cases: KinomeScan profiling
Type in all cases: binding
NEK9 = biological target: T1, NEK9 (Homo sapiens, UniProt Q8TD19); conditions: NEK9, 1 μM; read-out: % control
T1 sequence (Q8TD19 1-979): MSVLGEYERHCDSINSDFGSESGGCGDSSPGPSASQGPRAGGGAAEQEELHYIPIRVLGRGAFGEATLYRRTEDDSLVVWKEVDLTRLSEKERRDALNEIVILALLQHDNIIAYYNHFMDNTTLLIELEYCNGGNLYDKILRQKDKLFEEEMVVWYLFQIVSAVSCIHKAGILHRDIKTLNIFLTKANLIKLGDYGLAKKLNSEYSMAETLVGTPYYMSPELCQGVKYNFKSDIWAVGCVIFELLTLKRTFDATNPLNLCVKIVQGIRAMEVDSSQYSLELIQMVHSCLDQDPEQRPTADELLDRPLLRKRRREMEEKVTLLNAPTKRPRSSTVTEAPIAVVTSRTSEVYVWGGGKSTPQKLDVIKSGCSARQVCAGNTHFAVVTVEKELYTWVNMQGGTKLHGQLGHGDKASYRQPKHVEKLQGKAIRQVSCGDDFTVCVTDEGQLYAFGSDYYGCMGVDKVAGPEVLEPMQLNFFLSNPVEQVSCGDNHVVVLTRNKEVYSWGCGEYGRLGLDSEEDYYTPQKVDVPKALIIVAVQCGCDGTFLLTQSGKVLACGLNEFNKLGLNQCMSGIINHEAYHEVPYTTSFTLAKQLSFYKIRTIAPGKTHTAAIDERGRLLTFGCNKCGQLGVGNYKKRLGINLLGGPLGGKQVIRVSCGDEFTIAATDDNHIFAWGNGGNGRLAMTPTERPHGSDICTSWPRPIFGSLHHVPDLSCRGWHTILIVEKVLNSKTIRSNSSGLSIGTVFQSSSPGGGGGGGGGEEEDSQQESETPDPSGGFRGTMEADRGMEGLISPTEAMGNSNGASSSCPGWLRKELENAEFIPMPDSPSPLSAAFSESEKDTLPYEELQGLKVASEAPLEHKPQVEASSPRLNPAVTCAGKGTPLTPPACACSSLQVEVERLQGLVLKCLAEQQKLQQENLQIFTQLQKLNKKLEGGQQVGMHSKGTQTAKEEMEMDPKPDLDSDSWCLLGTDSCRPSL
Method in brief: (§1)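 Percent-of-control values derive from RLU, calculated as (test − positive)/(negative − positive) × 100, where DMSO defines 100% and a positive control compound defines 0%. Each compound was tested at 1 μM in the 468-kinase panel; sub-35% readings indicate activity.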

AURKB = biological target: T2, AURKB (Homo sapiens, UniProt Q96GD4); conditions: read-out: % control
T2 construct: purchased KinomeScan®
T2 sequence (Q96GD4 whole entry): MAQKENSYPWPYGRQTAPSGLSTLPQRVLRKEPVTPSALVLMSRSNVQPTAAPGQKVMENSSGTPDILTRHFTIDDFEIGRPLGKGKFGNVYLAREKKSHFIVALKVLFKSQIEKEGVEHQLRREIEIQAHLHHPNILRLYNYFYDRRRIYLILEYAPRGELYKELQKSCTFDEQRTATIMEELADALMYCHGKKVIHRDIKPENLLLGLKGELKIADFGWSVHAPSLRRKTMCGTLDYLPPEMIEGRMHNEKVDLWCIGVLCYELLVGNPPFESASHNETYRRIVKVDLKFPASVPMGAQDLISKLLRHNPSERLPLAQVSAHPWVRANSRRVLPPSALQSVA
Method in brief: as §1

PYK2 = PYK2 (Homo sapiens, UniProt Q14289); conditions: PYK2, 1 μM; read-out: % control
Chain of PYK2 (Q14289 whole entry): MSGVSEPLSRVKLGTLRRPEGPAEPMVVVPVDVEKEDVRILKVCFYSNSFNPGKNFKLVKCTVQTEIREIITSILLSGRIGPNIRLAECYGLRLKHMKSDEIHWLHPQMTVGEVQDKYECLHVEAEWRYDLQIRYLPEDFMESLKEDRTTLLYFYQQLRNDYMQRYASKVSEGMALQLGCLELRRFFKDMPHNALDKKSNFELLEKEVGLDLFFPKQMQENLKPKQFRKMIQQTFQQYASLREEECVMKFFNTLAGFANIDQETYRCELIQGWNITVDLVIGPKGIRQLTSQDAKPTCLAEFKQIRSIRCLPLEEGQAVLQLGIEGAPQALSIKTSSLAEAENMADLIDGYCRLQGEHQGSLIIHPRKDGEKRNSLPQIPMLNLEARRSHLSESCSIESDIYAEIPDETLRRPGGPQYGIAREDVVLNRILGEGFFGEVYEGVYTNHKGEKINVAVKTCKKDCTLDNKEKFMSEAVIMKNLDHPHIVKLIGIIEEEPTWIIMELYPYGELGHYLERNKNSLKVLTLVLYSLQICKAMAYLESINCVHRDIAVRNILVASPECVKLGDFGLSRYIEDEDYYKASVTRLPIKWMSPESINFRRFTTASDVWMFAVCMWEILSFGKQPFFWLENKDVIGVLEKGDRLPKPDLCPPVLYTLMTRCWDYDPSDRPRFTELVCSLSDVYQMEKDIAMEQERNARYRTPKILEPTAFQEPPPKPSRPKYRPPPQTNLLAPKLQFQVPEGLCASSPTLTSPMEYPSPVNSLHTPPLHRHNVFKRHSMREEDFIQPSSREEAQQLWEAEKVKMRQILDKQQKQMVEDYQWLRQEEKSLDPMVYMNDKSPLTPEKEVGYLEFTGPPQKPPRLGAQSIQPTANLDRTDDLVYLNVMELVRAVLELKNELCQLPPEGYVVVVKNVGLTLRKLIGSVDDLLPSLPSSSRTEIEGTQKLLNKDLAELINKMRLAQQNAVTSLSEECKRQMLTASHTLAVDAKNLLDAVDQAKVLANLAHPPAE
Method in brief: as §1

PRKD2 = biological target: T3, PRKD2 (Homo sapiens, UniProt Q9BZL6); conditions: PRKD2, 1 μM; read-out: % control
T3 sequence (Q9BZL6 1-878): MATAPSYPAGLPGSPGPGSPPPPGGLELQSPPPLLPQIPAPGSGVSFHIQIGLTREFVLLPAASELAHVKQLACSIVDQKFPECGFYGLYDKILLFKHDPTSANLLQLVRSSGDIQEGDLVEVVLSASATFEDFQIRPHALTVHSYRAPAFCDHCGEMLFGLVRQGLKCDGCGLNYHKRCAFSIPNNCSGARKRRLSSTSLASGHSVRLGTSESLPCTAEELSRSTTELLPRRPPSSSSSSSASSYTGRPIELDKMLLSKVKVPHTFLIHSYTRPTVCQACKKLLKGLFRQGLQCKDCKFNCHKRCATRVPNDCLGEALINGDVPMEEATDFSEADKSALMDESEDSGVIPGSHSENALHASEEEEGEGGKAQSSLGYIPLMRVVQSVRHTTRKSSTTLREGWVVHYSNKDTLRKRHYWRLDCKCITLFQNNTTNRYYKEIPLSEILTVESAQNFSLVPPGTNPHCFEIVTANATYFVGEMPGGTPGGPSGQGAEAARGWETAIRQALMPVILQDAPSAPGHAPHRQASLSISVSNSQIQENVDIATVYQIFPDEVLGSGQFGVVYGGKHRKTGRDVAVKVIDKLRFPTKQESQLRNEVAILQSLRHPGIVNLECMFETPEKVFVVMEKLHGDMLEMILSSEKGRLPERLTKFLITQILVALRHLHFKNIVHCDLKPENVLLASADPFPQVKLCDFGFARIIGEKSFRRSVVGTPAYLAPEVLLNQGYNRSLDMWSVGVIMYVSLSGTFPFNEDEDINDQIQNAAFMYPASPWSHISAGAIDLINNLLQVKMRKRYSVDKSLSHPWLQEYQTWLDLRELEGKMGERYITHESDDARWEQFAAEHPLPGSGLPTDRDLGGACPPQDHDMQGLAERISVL
Method in brief: as §1

MST1R = MST1R (Homo sapiens, UniProt Q04912); conditions: read-out: % control
Chain of MST1R (Q04912 25-1400): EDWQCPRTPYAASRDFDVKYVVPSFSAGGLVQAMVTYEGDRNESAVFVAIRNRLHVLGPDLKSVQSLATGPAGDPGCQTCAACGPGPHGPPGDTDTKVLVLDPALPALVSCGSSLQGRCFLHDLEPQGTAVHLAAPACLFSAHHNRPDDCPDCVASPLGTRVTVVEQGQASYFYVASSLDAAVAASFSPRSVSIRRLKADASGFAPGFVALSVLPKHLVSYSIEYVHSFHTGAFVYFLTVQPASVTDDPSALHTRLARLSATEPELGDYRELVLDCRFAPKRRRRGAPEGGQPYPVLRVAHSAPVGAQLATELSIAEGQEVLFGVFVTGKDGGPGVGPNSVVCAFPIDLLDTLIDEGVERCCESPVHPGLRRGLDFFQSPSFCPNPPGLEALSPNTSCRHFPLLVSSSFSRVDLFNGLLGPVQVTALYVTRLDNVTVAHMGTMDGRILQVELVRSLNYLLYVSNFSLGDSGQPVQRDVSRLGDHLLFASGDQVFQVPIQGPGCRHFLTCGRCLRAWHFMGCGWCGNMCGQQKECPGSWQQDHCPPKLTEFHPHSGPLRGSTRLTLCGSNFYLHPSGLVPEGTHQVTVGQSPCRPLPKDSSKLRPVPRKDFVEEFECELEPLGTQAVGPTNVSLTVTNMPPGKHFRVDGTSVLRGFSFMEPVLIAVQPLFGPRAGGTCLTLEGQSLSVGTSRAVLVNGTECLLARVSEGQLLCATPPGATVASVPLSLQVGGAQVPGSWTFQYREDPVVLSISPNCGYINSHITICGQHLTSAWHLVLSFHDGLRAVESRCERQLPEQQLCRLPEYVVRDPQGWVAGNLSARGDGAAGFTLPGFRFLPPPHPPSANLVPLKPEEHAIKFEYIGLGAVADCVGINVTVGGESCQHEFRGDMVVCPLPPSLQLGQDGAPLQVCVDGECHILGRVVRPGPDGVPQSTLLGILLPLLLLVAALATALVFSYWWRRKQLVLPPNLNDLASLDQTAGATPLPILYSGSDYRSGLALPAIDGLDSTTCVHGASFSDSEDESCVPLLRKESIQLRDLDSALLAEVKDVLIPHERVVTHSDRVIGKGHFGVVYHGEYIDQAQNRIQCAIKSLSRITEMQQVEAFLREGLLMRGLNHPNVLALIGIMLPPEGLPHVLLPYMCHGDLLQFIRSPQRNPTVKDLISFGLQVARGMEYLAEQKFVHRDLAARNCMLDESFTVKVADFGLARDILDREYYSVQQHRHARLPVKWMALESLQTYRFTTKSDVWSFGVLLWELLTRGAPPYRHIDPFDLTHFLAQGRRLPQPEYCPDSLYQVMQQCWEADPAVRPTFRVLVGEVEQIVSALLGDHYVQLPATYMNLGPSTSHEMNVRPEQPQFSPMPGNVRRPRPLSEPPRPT
Method in brief: as §1

SMILES	remaining binding at 1 µM (NEK9)	remaining binding at 1 µM (AURKB)	remaining binding at 1 µM (PYK2)	remaining binding at 1 µM (PRKD2)	remaining binding at 1 µM (MST1R)
CNc1c(-c2cnn([C@H]3CCN(C(C)=O)C[C@@H]3F)c2)cnc2[nH]cc(Cl)c12 [Compound 77, 1-((3S,4S)-4-(4-(3-chloro-4-(methylamino)-1H-pyrrolo[2,3-b]pyridin-5-yl)-1H-pyrazol-1-yl)-3-fluoropiperidin-1-yl)ethan-1-one]	100%	24%	89%	90%	100%
O=C(c1ccc(-c2cnc3[nH]cc(Cl)c3c2NC2CCCC2)cc1)N1CCC(N2CCOCC2)CC1 [Compound 101, (4-(3-chloro-4-(cyclopentylamino)-1H-pyrrolo[2,3-b]pyridin-5-yl)phenyl)(4-morpholinopiperidin-1-yl)methanone]	98%	100%	78%	59%	77%
CNc1c(-c2ccc(C(=O)N3CCC(N4CCOCC4)CC3)cc2)cnc2[nH]cc(Cl)c12 [Compound 96, (4-(3-chloro-4-(methylamino)-1H-pyrrolo[2,3-b]pyridin-5-yl)phenyl)(4-morpholinopiperidin-1-yl)methanone]	100%	53%	92%	13%	88%
